# US20250114416A1, “ANTIVIRAL C[…] EXTRACT AND STEROID COMPOUND AS ACTIVE INGREDIENTS” (priority 2022, published 2025)
# Like-named read-outs stand apart in the source and are kept apart here.
# Columns and labels:
# Adenovirus type 5 [1] = conditions: examples using ginseng (Table 1); lung tissue of K18-ACE2 TG mice, oral, three days after infection; non-treated control = 100
# Adenovirus type 5 [2] = format: cell-based; conditions: examples using ginseng (Table 1); Vero-E6 cells, 100 μg/ml pretreatment 2 h, 50 pfu/well, 72 h; non-treated control = 100
SMILES,Relative virus titer Adenovirus type 5 (Adenovirus type 5 [1]),Relative virus titer Adenovirus type 5 (Adenovirus type 5 [2])
"C[C@@H]1C[C@H]2[C@@H]3CCC4=CC(=O)C=C[C@]4(C)[C@@]3(F)[C@@H](O)C[C@]2(C)[C@@]1(O)C(=O)CO [Comparative Example 4, Dexamethasone]",102 ± 1.9,102 ± 1.9
"C[C@]12C=CC(=O)C=C1CC[C@H]1[C@@H]3C[C@@H](O)[C@](O)(C(=O)CO)[C@@]3(C)C[C@H](O)[C@@]12F [Comparative Example 7, Triamcinolone]",101 ± 1.9,102 ± 1.9
"C[C@]12C=CC(=O)C=C1CC[C@@H]1[C@@H]2[C@@H](O)C[C@@]2(C)[C@H]1CC[C@]2(O)C(=O)CO [Comparative Example 6, Prednisolone]",102 ± 1.9,102 ± 1.9
"C[C@]12CCC(=O)C=C1CC[C@@H]1[C@@H]2[C@@H](O)C[C@@]2(C)[C@H]1CC[C@]2(O)C(=O)CO [Comparative Example 5, Hydrocortisone]",101 ± 1.9,103 ± 1.9
